Data taken from patent US10334852B2, “Pyrido-1,3-oxazine-2,4-dione compounds with fungicidal activity” (Dow AgroSciences LLC, priority 2016, dated 2019).
Read-outs that look alike come from different tables or passages of the source.

Legend:
[1] = system: Puccinia triticina; assay: Wheat brown rust (PUCCRT) disease control on wheat seedlings; type: in vivo, Puccinia triticina on wheat plants (variety Yuma); conditions: LV activity at 121.5 g/H
Protocol: Technical grades of materials were dissolved in acetone, which were then mixed with nine volumes of water (H2O) containing 110 ppm Triton X-100. The fungicide solutions were applied onto wheat seedlings using an automated booth sprayer to run-off. All sprayed plants were allowed to air dry prior to further handling. All fungicides were evaluated using the aforementioned method for their activity vs. all target diseases, unless stated otherwise. Wheat leaf blotch and brown rust activity were also evaluated using track spray applications, in which case the fungicides were formulated as EC formulations, containing 0.1% Trycol 5941 in the spray solutions. Wheat plants (variety Yuma) were grown from seed in a greenhouse in 50% mineral soil/50% soil-less Metro mix until the first leaf was fully emerged, with 7-10 seedlings per pot. These plants were inoculated with an aqueous spore suspension of Zymoseptoria tritici either prior to or after fungicide treatments. […] When disease symptoms were fully expressed on the 1st leaves of untreated plants, infection levels were assessed on a scale of 0 to 100 percent disease severity. Percent disease control was calculated using the ratio of disease severity on treated plants relative to untreated plants. […]

[2] = system: Zymoseptoria tritici; assay: Leaf blotch of wheat (SEPTTR) disease control on wheat seedlings; type: in vivo, Zymoseptoria tritici on wheat plants (variety Yuma); conditions: LV activity at 121.5 g/H
Protocol: Technical grades of materials were dissolved in acetone, which were then mixed with nine volumes of water (H2O) containing 110 ppm Triton X-100. The fungicide solutions were applied onto wheat seedlings using an automated booth sprayer to run-off. All sprayed plants were allowed to air dry prior to further handling. All fungicides were evaluated using the aforementioned method for their activity vs. all target diseases, unless stated otherwise. Wheat leaf blotch and brown rust activity were also evaluated using track spray applications, in which case the fungicides were formulated as EC formulations, containing 0.1% Trycol 5941 in the spray solutions. Wheat plants (variety Yuma) were grown from seed in a greenhouse in 50% mineral soil/50% soil-less Metro mix until the first leaf was fully emerged, with 7-10 seedlings per pot. These plants were inoculated with an aqueous spore suspension of Zymoseptoria tritici either prior to or after fungicide treatments. […] When disease symptoms were fully expressed on the 1st leaves of untreated plants, infection levels were assessed on a scale of 0 to 100 percent disease severity. Percent disease control was calculated using the ratio of disease severity on treated plants relative to untreated plants.

## CCc1cc(OC)ccc1C(c1ccc(OC)cc1OC)[C@H](C)OC(=O)[C@H](C)n1c(=O)oc2c(OC)ccnc2c1=O (stereo partly shown) [Compound 8]
[1]; 24 h, 1 Day Protectant, read-out: PUCCRT 1DP disease control rating
  pest or weed control at 121.5 g/ha: ≤ 80%
[1]; 72 h, 3 Day Curative, read-out: PUCCRT 3DC disease control rating
  pest or weed control at 121.5 g/ha: ≤ 80%
[2]; 24 h, 1 Day Protectant, read-out: SEPTTR 1DP disease control rating
  pest or weed control at 121.5 g/ha: > 80%
[2]; 72 h, 3 Day Curative, read-out: SEPTTR 3DC disease control rating
  pest or weed control at 121.5 g/ha: > 80%
